Measured values as given in patent US9693995B2, “Pharmaceutical composition for topical administration” (Ziarco Pharma Ltd., priority 2014, dated 2017).

How the values were obtained:
PMA-mediated skin oedema = test: PMA-induced inflammation in mice (ear thickness by calliper); assay type: in vivo, Balb/C laboratory mice
Method: Phorbol 12-myristate 13-acetate (PMA) is commonly used to induce inflammation and oedema of the skin of laboratory animals as a preclinical inflammation model.
In the present example PMA was dissolved in a 10% ethanol solution to a final concentration of 0.4 μg per μl. A 10 μl was applied to the ears of Balb/C laboratory mice 1 hour after topical application of 3-{4-[2-{5-chloro-1-(diphenylmethyl)-2-[2-({[2-(trifluoromethyl)benzyl]sulfonyl}amino)ethyl]-1H-indol-3-yl}ethyl]sulfonyl}phenyl}propanoic acid (Compound I) in a 10% ethanol solution at either 0.3% or 3% w/w. As a negative control the vehicle was applied without the active compound. Positive controls were indomethacin (a non-steroidal anti-inflammatory drug) and CAY10650 (a known cPLA2α inhibitor).
The level of oedema was monitored by measurement of ear thickness by calliper at intervals of 1, 3, 6 and 24 hours

cPLA2α = molecular target: T1, cPLA2α (Homo sapiens, UniProt P47712); conditions: cellular and enzymatic assays; cited from earlier work
T1 sequence (P47712 1-749): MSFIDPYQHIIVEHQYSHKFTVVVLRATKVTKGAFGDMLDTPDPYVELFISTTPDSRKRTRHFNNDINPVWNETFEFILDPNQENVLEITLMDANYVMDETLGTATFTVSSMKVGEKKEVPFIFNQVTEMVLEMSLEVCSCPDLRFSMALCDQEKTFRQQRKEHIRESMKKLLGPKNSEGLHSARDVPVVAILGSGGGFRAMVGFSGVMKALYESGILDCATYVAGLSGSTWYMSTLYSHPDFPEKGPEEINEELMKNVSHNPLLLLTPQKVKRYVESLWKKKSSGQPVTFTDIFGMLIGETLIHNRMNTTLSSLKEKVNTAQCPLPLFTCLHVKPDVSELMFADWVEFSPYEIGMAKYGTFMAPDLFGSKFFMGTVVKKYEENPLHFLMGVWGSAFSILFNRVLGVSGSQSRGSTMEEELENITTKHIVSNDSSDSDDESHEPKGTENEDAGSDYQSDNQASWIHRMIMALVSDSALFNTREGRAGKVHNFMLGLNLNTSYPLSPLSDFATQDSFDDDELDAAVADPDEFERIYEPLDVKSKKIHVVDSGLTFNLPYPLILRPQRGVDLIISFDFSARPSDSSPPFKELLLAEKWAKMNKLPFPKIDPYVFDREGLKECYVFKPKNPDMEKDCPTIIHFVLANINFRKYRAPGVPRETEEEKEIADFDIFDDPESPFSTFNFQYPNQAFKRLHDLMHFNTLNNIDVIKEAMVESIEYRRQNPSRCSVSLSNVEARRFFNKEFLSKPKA

[1] = Small scale in vitro permeation/penetration experiment, Franz diffusion cell; assay type: in vitro ADME, human
Text: Commonly, in vitro skin permeation experiments involve the use of a diffusion cell designed to mimic the physiological and anatomical conditions of skin in situ. The model used in this experiment was the Franz diffusion cell (Finnin et al. Topical and Transdermal Drug Delivery 2012: 85-100, Benson and Watkinson (Eds), incorporated herein by reference). Skin prepared as described below was positioned between the two halves of the cell with the Stratum corneum facing the donor compartment allowing for drug application. The aim of the work was to compare the drug concentrations permeating into and across dermatomed human skin when applied from different formulations/solvent systems. […]
Two solvent systems were selected for a small scale in vitro drug permeation study and was dosed as described below: • (i) The cells were assembled as described above. • (ii) Nine cells were assembled. Two solvent system (n=3), respective placebo solvent system (n=1) and a blank cell (n=1) were assessed during the feasibility experiment. • (iii) The selected solvent systems (6 mg) were applied directly to the surface of the skin with a positive displacement pipette (resulting in a dose of approximately 10 mg/cm^2). […] Weights and volumes applied (to ensure a 6 mg dose) were recorded. • (iv) Receiver fluid (200 μL) was removed at the following time points t=0, 1, 2, 4, 6, 24, 30 and 48 h. […]

PLA2 = conditions: read-out: IC50, inhibition of PLA2 activity; acid extracted intact human neutrophil homogenate; Marshall et al. 1995; cited from earlier work

| Compound | efficacy against PMA-mediated skin oedema relative to positive control (PMA-mediated skin oedema; topical Compound I versus orally-dosed indomethacin) | reduction in PMA-mediated skin oedema (PMA-mediated skin oedema; topical, 0.3% or 3% w/w in 10% ethanol solution, 1 hour before PMA on ears, ear thickness at 1, 3, 6 and 24 hours) | inhibition of cPLA2α activity (potency in words) (cPLA2α) | total recovery of Compound I ([1]; for each solvent system applied (SS1, SS2), after t=48 h, single skin donor) | Compound I detected in the receiver fluid ([1]; solvent systems SS1 and SS2, 48 h experiment, irrespective of sample volume (200 μL, 1.5 mL), receiver fluid EtOH 20% v/v in water) | IC50 (PLA2) [µM] |
| --- | --- | --- | --- | --- | --- | --- |
| O=C(O)CCc1ccc(S(=O)(=O)CCc2c(CCNS(=O)(=O)Cc3ccccc3C(F)(F)F)n(C(c3ccccc3)c3ccccc3)c3ccc(Cl)cc23)cc1 [Compound I] | comparable to orally-dosed indomethacin | dose-dependent reduction | sub-low nanomolar inhibitor | 90.00-109.72 % of the applied dose | not detected | – |
| O=C(O)c1ccccc1Oc1ccc(C(F)(F)F)cc1NS(=O)(=O)c1cc(C(F)(F)F)cc(C(F)(F)F)c1 [SB 203347] | – | – | – | – | – | 4.7 |
